According to patent publication US7928231B2, “Thienopyrazoles” (priority 2003, dated 2011):

Legend:
ITK = target: T1, ITK (Homo sapiens, UniProt Q08881); assay: FlashPlate ITK protocol for ITK inhibition determination (ITK autophosphorylation, [γ-33P]ATP); format: biochemical; conditions: MBP-tagged ITK, read-out: IC50 (enzyme inhibition)-
T1 construct: made in house
T1 sequence (Q08881 1-620): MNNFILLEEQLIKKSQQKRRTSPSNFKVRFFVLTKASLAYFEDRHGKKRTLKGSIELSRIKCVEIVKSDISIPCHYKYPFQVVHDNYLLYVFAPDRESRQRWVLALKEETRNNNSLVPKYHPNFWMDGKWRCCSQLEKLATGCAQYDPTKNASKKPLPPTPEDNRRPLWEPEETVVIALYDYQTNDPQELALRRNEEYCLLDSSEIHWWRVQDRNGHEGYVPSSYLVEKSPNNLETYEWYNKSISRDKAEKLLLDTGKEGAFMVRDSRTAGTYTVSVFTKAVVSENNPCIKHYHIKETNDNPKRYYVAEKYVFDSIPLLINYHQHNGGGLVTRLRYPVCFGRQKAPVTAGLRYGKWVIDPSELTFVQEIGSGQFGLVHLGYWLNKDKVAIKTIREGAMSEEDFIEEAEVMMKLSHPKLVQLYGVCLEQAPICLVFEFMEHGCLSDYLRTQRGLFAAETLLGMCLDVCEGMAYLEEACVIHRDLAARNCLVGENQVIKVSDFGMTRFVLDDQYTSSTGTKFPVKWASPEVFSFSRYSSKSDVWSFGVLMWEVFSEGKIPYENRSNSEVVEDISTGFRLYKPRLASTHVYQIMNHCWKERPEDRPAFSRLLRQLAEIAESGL
Description: ITK kinase is produced with an N-terminal Maltose Binding Protein tag (MW=˜114 kDa) using a Baculovirus expression system. The transfer of radioactive [γ-^33P] phosphate from [γ-^33P]ATP to ITK during the autophosphorylation of ITK is measured by scintillation counting. Streptavidin-coated FlashPlate Plus™ 384 well microplates (PerkinElmer Life Sciences) are designed for in-plate radiometric assays. The interior of each well is permanently coated with a thin layer of scintillant and a covalently bound layer of Streptavidin. ITK is incubated with [γ-^33P]ATP, biotinylated anti-MBP antibody (Cell Signaling Technology™) and test compounds in a 384-well Streptavidin-coated FlashPlate. The biotinylated anti-MBP binds tightly to the MBP-tagged ITK and cross-links it to Streptavidin on the plate surface. Unreacted ^33P-ATP is washed away and ^33P-phosphorylated ITK is measured when the [γ-^33P] incorporated into ITK stimulates the scintillant on the well to emit light. Radioactivity is assessed in a Packard
TopCount scintillation counter. Reagents are pipetted and dispensed using Beckman Biomek robotic equipment. Test compounds (2 μl per well) are pre-diluted from 1 mM 100% dimethyl sulfoxide solutions into water containing 30% dimethyl sulfoxide to produce dose response curves (10 point curves from (final) 30 μM to ˜1 nM); all tests are performed in duplicate. Background binding is assessed by substituting the enzyme inhibitor EDTA (25 mM final concentration) for test compound and maximal binding is assessed by inclusion of assay buffer instead of compound. Test compounds are added to the wells first (2 μl) followed by 10 μl enzyme solution in assay buffer. After 30 minutes pre-incubation, all other reagents are added in a 10 μl volume. The final reagent concentrations/well are as follows: 20 nM enzyme, 0.25 μCi [γ-^33P]ATP, assay buffer: 20 mM HEPES (pH 7.5), 0.15 M NaCl, 3 mM MgCl2, 3 mM MnCl2, 0.01% Triton X-100, 1 mM DTT, 5% glycerol and 0.01% γ-globulin. The plate is incubated at room temperature (RT) for 60 minutes for the kinase reaction. The reaction is stopped with 20 μl of 50 mM EDTA and the biotinylated anti-MBP is allowed to bind to the ITK and the Streptavidin for a further 60 minutes at RT. The unbound reagents are washed away with 2×100 μl phosphate-buffered saline (PBS). Radioactivity is measured for 45 sec/well.

`COc1ccc2[nH]c(-c3n[nH]c4ccsc34)cc2n1` [Example 60, 5-Methoxy-2-(1H-thieno[3,2-c]pyrazol-3-yl)-1H-pyrrolo[3,2-b]pyridine] showed a melting point of 234 to 236 °C and an IC50 (ITK) of 224 nM.
